This note sets out measurements from publication PMC7915588, “Polyphyllin D Shows Anticancer Effect through a Selective Inhibition of Src Homology Region 2-Containing Protein Tyrosine Phosphatase-2 (SHP2)” (Molecules, 2021).

For one assay, the target named is T1, PTPN13 (PTP-BAS) (Homo sapiens, UniProt Q12923).
T1 construct: 2095-2490
Kind of assay: biochemical. On the set-up: Fluorogenic phosphatase assay, DiFMUP hydrolysis by recombinant PTPs, initial velocity, Ex/Em 355/460 nm. The settings on record: read-out: Inhibition by 20 µM polyphyllin D (%).

The target in another assay is T2, PTPN14 (PTP36) (Homo sapiens, UniProt Q15678).
T2 construct: 908-1187
T2 sequence (Q15678 1-1187): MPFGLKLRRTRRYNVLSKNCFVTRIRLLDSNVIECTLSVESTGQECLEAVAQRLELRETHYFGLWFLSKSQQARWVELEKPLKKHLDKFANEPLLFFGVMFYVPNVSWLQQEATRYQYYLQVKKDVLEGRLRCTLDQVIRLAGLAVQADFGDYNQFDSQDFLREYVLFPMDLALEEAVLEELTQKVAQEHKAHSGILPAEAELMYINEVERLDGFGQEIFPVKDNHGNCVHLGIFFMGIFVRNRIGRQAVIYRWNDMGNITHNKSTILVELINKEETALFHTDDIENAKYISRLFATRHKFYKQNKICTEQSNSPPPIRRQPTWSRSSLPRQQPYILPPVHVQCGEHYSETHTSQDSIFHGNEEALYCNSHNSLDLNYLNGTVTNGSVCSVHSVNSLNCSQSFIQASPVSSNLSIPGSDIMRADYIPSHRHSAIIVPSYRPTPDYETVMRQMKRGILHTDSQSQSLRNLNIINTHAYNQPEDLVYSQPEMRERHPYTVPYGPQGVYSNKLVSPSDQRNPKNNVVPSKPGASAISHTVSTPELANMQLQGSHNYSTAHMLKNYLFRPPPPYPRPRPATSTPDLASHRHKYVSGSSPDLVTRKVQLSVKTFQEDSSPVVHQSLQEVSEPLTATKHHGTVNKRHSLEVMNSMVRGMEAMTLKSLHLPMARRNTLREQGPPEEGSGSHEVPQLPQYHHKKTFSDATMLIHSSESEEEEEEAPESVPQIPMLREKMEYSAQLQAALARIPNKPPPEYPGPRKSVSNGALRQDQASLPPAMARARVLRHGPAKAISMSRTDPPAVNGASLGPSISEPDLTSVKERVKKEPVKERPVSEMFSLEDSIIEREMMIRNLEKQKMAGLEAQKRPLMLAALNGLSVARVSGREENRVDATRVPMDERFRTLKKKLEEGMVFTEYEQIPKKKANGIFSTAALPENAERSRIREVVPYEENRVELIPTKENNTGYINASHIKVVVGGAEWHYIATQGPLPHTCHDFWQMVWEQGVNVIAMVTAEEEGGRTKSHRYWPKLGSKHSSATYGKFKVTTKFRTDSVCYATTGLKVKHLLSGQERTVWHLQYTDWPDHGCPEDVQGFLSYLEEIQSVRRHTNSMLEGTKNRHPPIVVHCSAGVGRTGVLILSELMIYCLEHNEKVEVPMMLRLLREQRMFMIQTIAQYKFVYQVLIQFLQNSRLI
Kind of assay: biochemical. More on the design: Fluorogenic phosphatase assay, DiFMUP hydrolysis by recombinant PTPs, initial velocity, Ex/Em 355/460 nm. Particulars: read-out: Inhibition by 20 µM polyphyllin D (%).

T1 sequence (Q12923 whole entry): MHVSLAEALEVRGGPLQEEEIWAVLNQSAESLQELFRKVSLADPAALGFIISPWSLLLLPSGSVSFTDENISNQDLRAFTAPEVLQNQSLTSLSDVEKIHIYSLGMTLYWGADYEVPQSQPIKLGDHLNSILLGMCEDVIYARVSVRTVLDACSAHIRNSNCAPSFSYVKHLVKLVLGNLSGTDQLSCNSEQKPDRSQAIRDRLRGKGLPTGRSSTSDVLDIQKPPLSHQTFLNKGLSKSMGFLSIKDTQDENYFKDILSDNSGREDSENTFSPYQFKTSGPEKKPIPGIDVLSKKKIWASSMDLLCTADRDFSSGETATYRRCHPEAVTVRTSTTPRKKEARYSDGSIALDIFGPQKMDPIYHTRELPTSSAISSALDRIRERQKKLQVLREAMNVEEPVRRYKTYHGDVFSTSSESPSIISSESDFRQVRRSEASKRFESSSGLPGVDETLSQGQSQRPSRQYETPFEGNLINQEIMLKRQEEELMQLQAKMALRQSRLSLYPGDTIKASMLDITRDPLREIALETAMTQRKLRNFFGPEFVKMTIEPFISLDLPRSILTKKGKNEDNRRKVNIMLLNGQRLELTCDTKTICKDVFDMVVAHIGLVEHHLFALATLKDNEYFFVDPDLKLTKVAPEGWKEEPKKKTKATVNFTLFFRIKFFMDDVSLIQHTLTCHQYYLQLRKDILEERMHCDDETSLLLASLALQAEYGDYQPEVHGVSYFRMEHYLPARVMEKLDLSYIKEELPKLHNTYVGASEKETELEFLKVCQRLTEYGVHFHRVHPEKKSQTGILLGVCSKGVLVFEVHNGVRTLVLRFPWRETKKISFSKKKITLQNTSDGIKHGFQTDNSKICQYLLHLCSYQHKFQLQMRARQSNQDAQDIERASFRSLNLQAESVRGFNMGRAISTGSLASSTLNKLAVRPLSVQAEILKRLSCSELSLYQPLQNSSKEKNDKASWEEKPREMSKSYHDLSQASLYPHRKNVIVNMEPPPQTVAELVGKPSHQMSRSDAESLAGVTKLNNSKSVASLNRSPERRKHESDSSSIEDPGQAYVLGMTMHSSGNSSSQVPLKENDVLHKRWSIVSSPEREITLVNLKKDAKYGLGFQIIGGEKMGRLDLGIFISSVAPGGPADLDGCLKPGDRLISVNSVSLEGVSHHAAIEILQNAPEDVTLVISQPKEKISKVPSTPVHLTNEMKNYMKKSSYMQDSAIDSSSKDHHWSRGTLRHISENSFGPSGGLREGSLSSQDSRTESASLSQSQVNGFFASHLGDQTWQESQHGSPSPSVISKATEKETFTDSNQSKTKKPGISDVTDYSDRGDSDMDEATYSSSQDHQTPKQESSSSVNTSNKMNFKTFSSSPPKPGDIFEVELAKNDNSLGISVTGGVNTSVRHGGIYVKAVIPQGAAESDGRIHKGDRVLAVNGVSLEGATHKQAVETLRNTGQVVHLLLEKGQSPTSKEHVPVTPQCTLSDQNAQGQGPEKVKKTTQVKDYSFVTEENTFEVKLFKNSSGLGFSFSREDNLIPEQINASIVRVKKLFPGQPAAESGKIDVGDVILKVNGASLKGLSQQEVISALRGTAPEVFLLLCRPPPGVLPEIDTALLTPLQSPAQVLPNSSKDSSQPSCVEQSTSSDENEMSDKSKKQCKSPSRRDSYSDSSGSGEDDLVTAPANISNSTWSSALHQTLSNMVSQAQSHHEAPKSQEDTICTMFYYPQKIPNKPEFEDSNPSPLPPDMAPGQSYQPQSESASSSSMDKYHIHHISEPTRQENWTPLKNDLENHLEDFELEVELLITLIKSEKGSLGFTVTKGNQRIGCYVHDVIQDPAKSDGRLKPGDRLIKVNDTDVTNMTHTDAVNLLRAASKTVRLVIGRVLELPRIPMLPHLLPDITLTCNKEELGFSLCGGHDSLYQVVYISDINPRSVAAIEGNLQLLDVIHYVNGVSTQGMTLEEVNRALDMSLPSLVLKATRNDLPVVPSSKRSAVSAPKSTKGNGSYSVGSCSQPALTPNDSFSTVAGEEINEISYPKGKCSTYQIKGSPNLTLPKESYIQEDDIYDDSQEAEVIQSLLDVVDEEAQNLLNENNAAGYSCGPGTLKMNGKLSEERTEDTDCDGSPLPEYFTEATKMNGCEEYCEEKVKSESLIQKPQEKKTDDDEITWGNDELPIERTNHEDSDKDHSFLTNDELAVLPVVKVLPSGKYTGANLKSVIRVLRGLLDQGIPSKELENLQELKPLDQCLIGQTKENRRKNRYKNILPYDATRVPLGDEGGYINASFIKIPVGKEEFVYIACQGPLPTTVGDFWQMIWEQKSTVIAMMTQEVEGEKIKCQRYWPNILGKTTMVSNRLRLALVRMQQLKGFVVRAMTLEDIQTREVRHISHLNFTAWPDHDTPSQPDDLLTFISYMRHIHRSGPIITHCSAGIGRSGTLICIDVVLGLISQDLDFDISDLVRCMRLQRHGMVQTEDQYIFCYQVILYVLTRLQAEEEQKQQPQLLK

On to `C[C@@H]1CC[C@@]2(OC1)O[C@H]1C[C@H]3[C@@H]4CC=C5C[C@@H](O[C@@H]6O[C@H](CO)[C@@H](O[C@@H]7O[C@@H](CO)[C@H](O)[C@H]7O)[C@H](O)[C@H]6O[C@@H]6O[C@@H](C)[C@H](O)[C@@H](O)[C@H]6O)CC[C@]5(C)[C@H]4CC[C@]3(C)[C@H]1[C@@H]2C` [polyphyllin D], for which the inhibition at 20 µM on PTPN13 (PTP-BAS) and on PTPN14 (PTP36) was 0% throughout.
